According to patent US10233184B2, “7-substituted sulfonimidoylpurinone compounds and derivatives for the treatment and prophylaxis of virus infection” (Hoffmann-La Roche Inc., priority 2016, dated 2019):
Read-outs that look alike come from different tables or passages of the source.

Columns and labels:
[1] = target: T1, human TLR7 (Homo sapiens, UniProt Q9NYK1); test: HEK293-Blue-hTLR-7 cells assay (SEAP reporter); assay type: cell-based; conditions: for Ratio (EC50(prodrug)/EC50(active form)): EC50 of prodrug over EC50 of corresponding active form; for EC50: HEK293-Blue-hTLR-7 cells, SEAP reporter, 20 hrs, prodrug, read-out: HEK293-hTLR-7 EC50 (Prodrug)
T1 sequence (Q9NYK1 27-1049): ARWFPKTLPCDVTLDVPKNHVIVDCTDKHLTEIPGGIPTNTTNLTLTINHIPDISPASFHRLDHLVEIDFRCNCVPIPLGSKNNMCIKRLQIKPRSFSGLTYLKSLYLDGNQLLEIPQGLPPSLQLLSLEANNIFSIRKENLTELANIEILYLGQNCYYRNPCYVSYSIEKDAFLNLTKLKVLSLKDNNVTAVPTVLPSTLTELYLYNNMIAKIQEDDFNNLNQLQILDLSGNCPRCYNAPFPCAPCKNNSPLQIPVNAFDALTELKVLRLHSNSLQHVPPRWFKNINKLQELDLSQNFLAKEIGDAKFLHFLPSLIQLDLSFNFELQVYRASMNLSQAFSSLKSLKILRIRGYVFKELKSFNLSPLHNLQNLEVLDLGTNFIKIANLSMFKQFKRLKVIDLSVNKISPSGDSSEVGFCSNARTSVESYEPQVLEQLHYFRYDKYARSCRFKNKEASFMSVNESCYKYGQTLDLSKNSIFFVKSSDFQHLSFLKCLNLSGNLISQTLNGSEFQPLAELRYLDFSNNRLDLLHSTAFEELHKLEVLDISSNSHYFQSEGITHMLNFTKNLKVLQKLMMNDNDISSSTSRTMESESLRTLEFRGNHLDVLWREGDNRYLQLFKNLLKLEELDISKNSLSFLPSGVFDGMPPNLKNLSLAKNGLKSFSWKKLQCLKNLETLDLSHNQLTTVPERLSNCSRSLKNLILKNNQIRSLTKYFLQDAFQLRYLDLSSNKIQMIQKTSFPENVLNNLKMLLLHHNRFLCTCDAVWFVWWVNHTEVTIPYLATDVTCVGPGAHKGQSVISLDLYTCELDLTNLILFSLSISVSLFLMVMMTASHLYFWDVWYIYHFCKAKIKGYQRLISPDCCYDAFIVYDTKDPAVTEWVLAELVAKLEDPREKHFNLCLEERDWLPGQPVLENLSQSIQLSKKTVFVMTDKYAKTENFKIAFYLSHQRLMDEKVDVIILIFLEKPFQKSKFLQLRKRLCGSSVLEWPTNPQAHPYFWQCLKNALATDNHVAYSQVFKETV
Summary of the method: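 HEK293-Blue-hTLR7 cells with NF-κB/AP-1-driven SEAP reporter exposed to serially diluted compound (1% DMSO) for 20 hrs at 37° C. Supernatant SEAP measured with QUANTI-Blue after 2 hrs at 37° C, absorbance 620~655 nm; agonism expressed as EC50.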

[2] = Portal vein study: oral PK in PVC/CAC dual cannulated rat; assay type: in vivo; conditions: prodrug 10 mg/kg oral, analyte prodrug
Description: Surgery was performed under pentobarbital/isoflurane anesthesia. Briefly, after disinfecting the abdominal area with betadine and 70% isopropyl alcohol, a small abdominal mid-line incision was made. The cecum was pulled out and mesenteric vein was identified and isolated for about 5 mm vessel. A loose ligature was placed proximally and distal end of the vein was ligated. Make a small incision (just enough to allow the insertion of the catheter) on isolated vein and insert the PU catheter towards liver for appropriate length. The catheter was secured in place by tying the loose ligature around the cannulated vessel. The cecum was replaced into abdominal cavity. A hole was made in the right abdominal wall to make the end of catheter pass freely. The catheter was secured by suture on the abdominal wall. The abdominal muscle incision was closed with suture. A small incision was made in the scapular area to serve as the exit site of the catheter. The catheter was subcutaneously tunneled and exteriorized through the scapular incision. A fixed suture was placed in the scapular region. The patency of the catheter was checked and then exteriorized from the subcutaneous space to the dorsal neck region. After gently wiping the area, the abdominal cavity was sutured. The left carotid artery was then cannulated by inserting a PESO catheter. Both the exteriorized catheters were tied firmly on the dorsal neck region and fixed. The animals was then allowed to recover in its cage and used for study at least 3 days after surgery. All catheters were flushed once daily with heparinized saline to maintain patency. Animals were fasted overnight (n=3) and administered vial oral gavage (10 mg/kg, 10 mL/kg). Blood samples (60 μL) were collected simultaneously from the portal and carotid artery catheters at 0.083, 0.25, 0.5, 1, 2, 4, 7, 24 h. All blood samples will be transferred into microcentrifuge tubes containing 2 μL of K2EDTA (0.5M) as anti-coagulant and placed on wet ice. Then blood samples will be processed for plasma by centrifugation at approximately 4° C., 3000 g within half an hour of collection. Plasma samples will be stored in polypropylene tubes, quick frozen over dry ice and kept at −70±10° C. until LC/MS/MS analysis. Pharmacokinetic parameters (mean±SD, n=3) of prodrugs and active forms in portal and carotid samples following oral administration of prodrugs (10 mg/kg) in portal vein cannulated rat were detected and analyzed.

[3] = carotid artery plasma, read-out: AUC0-2 (nM · h), prodrug, Carotid sampling
[4] = carotid artery plasma, read-out: Cmax (nM), prodrug, Carotid sampling
[5] = carotid artery plasma, read-out: Tmax (h), prodrug, Carotid sampling
[6] = portal vein plasma, read-out: AUC0-2 (nM · h), prodrug, Portal sampling
[7] = portal vein plasma, read-out: Cmax (nM), prodrug, Portal sampling
[8] = portal vein plasma, read-out: Tmax (h), prodrug, Portal sampling

Structure (SMILES)	Ratio (EC50(prodrug)/EC50(active form)) [1]	EC50 [1]	AUC(0-t) [2, 3]	Cmax [2, 4]	Tmax [2, 5]	AUC(0-t) [2, 6]	Cmax [2, 7]	Tmax [2, 8]
CCCN(C)C(=O)n1c(=O)n(Cc2ccc(C)cc2)c2nc([S@](=N)(=O)CC)nc(N)c21 [Example 43-A, 6-Amino-2-[S(R)-ethylsulfonimidoyl]-N-methyl-8-oxo-N-propyl-9-(p-tolylmethyl)purine-7-carboxamide]	1000	110 µM	0.124 µM·h	191 nM	0.22 h	2.07 µM·h	4110 nM	0.28 h
CCCN(C)C(=O)n1c(=O)n(Cc2ccc(Cl)cc2)c2nc([S@](=N)(=O)CC)nc(N)c21 [Example 41-A, 6-Amino-9-[(4-chlorophenyl)methyl]-2-[S(R)-ethylsulfonimidoyl]-N-methyl-8-oxo-N-propyl-purine-7-carboxamide]	518.8	44.1 µM	0.114 µM·h	210 nM	0.19 h	2.19 µM·h	9700 nM	0.14 h
CCCN(C)C(=O)n1c(=O)n(Cc2ccc(Cl)cc2)c2nc([S@@](=N)(=O)CC)nc(N)c21 [Example 41-B, 6-Amino-9-[(4-chlorophenyl)methyl]-2-[S(S)-ethylsulfonimidoyl]-N-methyl-8-oxo-N-propyl-purine-7-carboxamide]	452.1	32.1 µM	0.0225 µM·h	29.6 nM	0.25 h	1.44 µM·h	7070 nM	0.19 h
CCN(C)C(=O)n1c(=O)n(Cc2ccc(Cl)cc2)c2nc([S@@](=N)(=O)CC)nc(N)c21 [Example 42-A, 6-Amino-9-[(4-chlorophenyl)methyl]-N-ethyl-2[S(S)-ethylsulfonimidoyl]-N-methyl-8-oxo-purine-7-carboxamide]	570.4	40.5 µM	0.286 µM·h	286 nM	0.22 h	3.46 µM·h	8920 nM	0.19 h
